Type: physicochemical
Details: −80 °C

With CC(=O)NC[C@H]1CN(c2ccc(N3CCOCC3)c(F)c2)C(=O)O1 [Linezolid, linezolid] the “Stock solution stable for up to” value was 20 months.

Details: plasma; 4°C

In order of falling “Length of time for which stability is assumed” value (shortened to “Length of time”):
1. Cc1nnc(SCC2=C(C(=O)O)N3C(=O)[C@@H](NC(=O)Cn4cnnn4)[C@H]3SC2)s1 [Cefazolin, cefazolin]  48h 4 °C
2. CC(=O)NC[C@H]1CN(c2ccc(N3CCOCC3)c(F)c2)C(=O)O1 [Linezolid, linezolid]  48h 4 °C
3. CO/N=C(\C(=O)N[C@@H]1C(=O)N2C(C(=O)O)=C(COC(C)=O)CS[C@H]12)c1csc(N)n1 [Cefotaxime, cefotaxime]  48h 4 °C
4. C[C@@H](O)[C@H]1C(=O)N2C(C(=O)O)=C(S[C@@H]3CN[C@H](C(=O)N(C)C)C3)[C@H](C)[C@H]12 [Meropenem, meropenem]  24h 4 °C
5. Cc1onc(-c2c(F)cccc2Cl)c1C(=O)N[C@@H]1C(=O)N2[C@@H]1SC(C)(C)[C@@H]2C(=O)O [Flucloxacillin, flucloxacillin]  24h 4 °C
6. CCN1CCN(C(=O)N[C@@H](C(=O)N[C@@H]2C(=O)N3[C@@H]2SC(C)(C)[C@@H]3C(=O)O)c2ccccc2)C(=O)C1=O [Piperacillin, piperacillin]  24h 4 °C
7. C[C@]1(Cn2ccnn2)[C@H](C(=O)O)N2C(=O)C[C@H]2S1(=O)=O [Tazobactam, tazobactam]  24h 4 °C
8. CO/N=C(\C(=O)N[C@@H]1C(=O)N2C(C(=O)[O-])=C(C[N+]3(C)CCCC3)CS[C@H]12)c1csc(N)n1 [Cefepime, cefepime]  8h 4 °C
9. CC(C)(O/N=C(\C(=O)N[C@@H]1C(=O)N2C(C(=O)[O-])=C(C[n+]3ccccc3)CS[C@H]12)c1csc(N)n1)C(=O)O [Ceftazidime, ceftazidime]  8h 4 °C

Same assay, conditions: plasma; RT (room temperature)

In order of rising “Length of time” value:
1. CO/N=C(\C(=O)N[C@@H]1C(=O)N2C(C(=O)[O-])=C(C[N+]3(C)CCCC3)CS[C@H]12)c1csc(N)n1 [Cefepime, cefepime]  5h RT
2. CCN1CCN(C(=O)N[C@@H](C(=O)N[C@@H]2C(=O)N3[C@@H]2SC(C)(C)[C@@H]3C(=O)O)c2ccccc2)C(=O)C1=O [Piperacillin, piperacillin]  5h RT
3. C[C@@H](O)[C@H]1C(=O)N2C(C(=O)O)=C(S[C@@H]3CN[C@H](C(=O)N(C)C)C3)[C@H](C)[C@H]12 [Meropenem, meropenem]  8h RT
4. Cc1onc(-c2c(F)cccc2Cl)c1C(=O)N[C@@H]1C(=O)N2[C@@H]1SC(C)(C)[C@@H]2C(=O)O [Flucloxacillin, flucloxacillin]  8h RT
5. CO/N=C(\C(=O)N[C@@H]1C(=O)N2C(C(=O)O)=C(COC(C)=O)CS[C@H]12)c1csc(N)n1 [Cefotaxime, cefotaxime]  8h RT
6. C[C@]1(Cn2ccnn2)[C@H](C(=O)O)N2C(=O)C[C@H]2S1(=O)=O [Tazobactam, tazobactam]  8h RT
7. Cc1nnc(SCC2=C(C(=O)O)N3C(=O)[C@@H](NC(=O)Cn4cnnn4)[C@H]3SC2)s1 [Cefazolin, cefazolin]  24h RT
8. CC(=O)NC[C@H]1CN(c2ccc(N3CCOCC3)c(F)c2)C(=O)O1 [Linezolid, linezolid]  24h RT

Same assay, conditions: plasma; −20°C; W = week

In order of rising “Length of time” value:
1. CO/N=C(\C(=O)N[C@@H]1C(=O)N2C(C(=O)[O-])=C(C[N+]3(C)CCCC3)CS[C@H]12)c1csc(N)n1 [Cefepime, cefepime]  1W−20 °C
2. C[C@@H](O)[C@H]1C(=O)N2C(C(=O)O)=C(S[C@@H]3CN[C@H](C(=O)N(C)C)C3)[C@H](C)[C@H]12 [Meropenem, meropenem]  1W−20 °C
3. CCN1CCN(C(=O)N[C@@H](C(=O)N[C@@H]2C(=O)N3[C@@H]2SC(C)(C)[C@@H]3C(=O)O)c2ccccc2)C(=O)C1=O [Piperacillin, piperacillin]  1W−20 °C
4. C[C@]1(Cn2ccnn2)[C@H](C(=O)O)N2C(=O)C[C@H]2S1(=O)=O [Tazobactam, tazobactam]  1W−20 °C
5. Cc1nnc(SCC2=C(C(=O)O)N3C(=O)[C@@H](NC(=O)Cn4cnnn4)[C@H]3SC2)s1 [Cefazolin, cefazolin]  2W−20 °C
6. CC(=O)NC[C@H]1CN(c2ccc(N3CCOCC3)c(F)c2)C(=O)O1 [Linezolid, linezolid]  2W−20 °C
7. Cc1onc(-c2c(F)cccc2Cl)c1C(=O)N[C@@H]1C(=O)N2[C@@H]1SC(C)(C)[C@@H]2C(=O)O [Flucloxacillin, flucloxacillin]  2W−20 °C

Same assay, conditions: plasma; −80°C; M = month

In the case of CO/N=C(\C(=O)N[C@@H]1C(=O)N2C(C(=O)[O-])=C(C[N+]3(C)CCCC3)CS[C@H]12)c1csc(N)n1 [Cefepime, cefepime], the “Length of time” value was 8M−80 °C.
For Cc1nnc(SCC2=C(C(=O)O)N3C(=O)[C@@H](NC(=O)Cn4cnnn4)[C@H]3SC2)s1 [Cefazolin, cefazolin], the “Length of time” value was 8M−80 °C.
In the case of C[C@@H](O)[C@H]1C(=O)N2C(C(=O)O)=C(S[C@@H]3CN[C@H](C(=O)N(C)C)C3)[C@H](C)[C@H]12 [Meropenem, meropenem], the “Length of time” value was 8M−80 °C.
With CC(=O)NC[C@H]1CN(c2ccc(N3CCOCC3)c(F)c2)C(=O)O1 [Linezolid, linezolid] the “Length of time” value was 8M−80 °C.
With Cc1onc(-c2c(F)cccc2Cl)c1C(=O)N[C@@H]1C(=O)N2[C@@H]1SC(C)(C)[C@@H]2C(=O)O [Flucloxacillin, flucloxacillin] the “Length of time” value was 8M−80 °C.
In the case of CO/N=C(\C(=O)N[C@@H]1C(=O)N2C(C(=O)O)=C(COC(C)=O)CS[C@H]12)c1csc(N)n1 [Cefotaxime, cefotaxime], the “Length of time” value was 8M−80 °C.

Details: whole blood versus plasma

In the case of Cc1nnc(SCC2=C(C(=O)O)N3C(=O)[C@@H](NC(=O)Cn4cnnn4)[C@H]3SC2)s1 [Cefazolin, cefazolin], the “Relative stability in whole blood and plasma” value (from here on “Relative stability”) was “stable in both matrices”.
With C[C@@H](O)[C@H]1C(=O)N2C(C(=O)O)=C(S[C@@H]3CN[C@H](C(=O)N(C)C)C3)[C@H](C)[C@H]12 [Meropenem, meropenem] the “Relative stability” value was “more stable in whole blood than in plasma”.
For CC(=O)NC[C@H]1CN(c2ccc(N3CCOCC3)c(F)c2)C(=O)O1 [Linezolid, linezolid], the “Relative stability” value was “stable in both matrices”.
In the case of Cc1onc(-c2c(F)cccc2Cl)c1C(=O)N[C@@H]1C(=O)N2[C@@H]1SC(C)(C)[C@@H]2C(=O)O [Flucloxacillin, flucloxacillin], the “Relative stability” value was “more stable in plasma”.
In the case of C[C@]1(Cn2ccnn2)[C@H](C(=O)O)N2C(=O)C[C@H]2S1(=O)=O [Tazobactam, tazobactam], the “Relative stability” value was “more stable in whole blood than in plasma”.

Same assay, conditions: whole blood; 4°C

In order of rising “Length of time” value:
1. Cc1onc(-c2c(F)cccc2Cl)c1C(=O)N[C@@H]1C(=O)N2[C@@H]1SC(C)(C)[C@@H]2C(=O)O [Flucloxacillin, flucloxacillin]  8h 4 °C
2. CO/N=C(\C(=O)N[C@@H]1C(=O)N2C(C(=O)[O-])=C(C[N+]3(C)CCCC3)CS[C@H]12)c1csc(N)n1 [Cefepime, cefepime]  48h 4 °C
3. Cc1nnc(SCC2=C(C(=O)O)N3C(=O)[C@@H](NC(=O)Cn4cnnn4)[C@H]3SC2)s1 [Cefazolin, cefazolin]  48h 4 °C
4. C[C@@H](O)[C@H]1C(=O)N2C(C(=O)O)=C(S[C@@H]3CN[C@H](C(=O)N(C)C)C3)[C@H](C)[C@H]12 [Meropenem, meropenem]  48h 4 °C
5. CC(=O)NC[C@H]1CN(c2ccc(N3CCOCC3)c(F)c2)C(=O)O1 [Linezolid, linezolid]  48h 4 °C
6. CO/N=C(\C(=O)N[C@@H]1C(=O)N2C(C(=O)O)=C(COC(C)=O)CS[C@H]12)c1csc(N)n1 [Cefotaxime, cefotaxime]  48h 4 °C
7. CCN1CCN(C(=O)N[C@@H](C(=O)N[C@@H]2C(=O)N3[C@@H]2SC(C)(C)[C@@H]3C(=O)O)c2ccccc2)C(=O)C1=O [Piperacillin, piperacillin]  48h 4 °C
8. C[C@]1(Cn2ccnn2)[C@H](C(=O)O)N2C(=O)C[C@H]2S1(=O)=O [Tazobactam, tazobactam]  48h 4 °C

Same assay, conditions: whole blood; RT (room temperature)

In order of falling “Length of time” value:
1. CO/N=C(\C(=O)N[C@@H]1C(=O)N2C(C(=O)[O-])=C(C[N+]3(C)CCCC3)CS[C@H]12)c1csc(N)n1 [Cefepime, cefepime]  24h RT
2. Cc1nnc(SCC2=C(C(=O)O)N3C(=O)[C@@H](NC(=O)Cn4cnnn4)[C@H]3SC2)s1 [Cefazolin, cefazolin]  24h RT
3. CC(=O)NC[C@H]1CN(c2ccc(N3CCOCC3)c(F)c2)C(=O)O1 [Linezolid, linezolid]  24h RT
4. CO/N=C(\C(=O)N[C@@H]1C(=O)N2C(C(=O)O)=C(COC(C)=O)CS[C@H]12)c1csc(N)n1 [Cefotaxime, cefotaxime]  24h RT
5. CCN1CCN(C(=O)N[C@@H](C(=O)N[C@@H]2C(=O)N3[C@@H]2SC(C)(C)[C@@H]3C(=O)O)c2ccccc2)C(=O)C1=O [Piperacillin, piperacillin]  24h RT
6. C[C@]1(Cn2ccnn2)[C@H](C(=O)O)N2C(=O)C[C@H]2S1(=O)=O [Tazobactam, tazobactam]  24h RT
7. C[C@@H](O)[C@H]1C(=O)N2C(C(=O)O)=C(S[C@@H]3CN[C@H](C(=O)N(C)C)C3)[C@H](C)[C@H]12 [Meropenem, meropenem]  8h RT
8. Cc1onc(-c2c(F)cccc2Cl)c1C(=O)N[C@@H]1C(=O)N2[C@@H]1SC(C)(C)[C@@H]2C(=O)O [Flucloxacillin, flucloxacillin]  8h RT
